Assay results as given in patent publication US5723580A, “Ketomethylene group-containing aldehyde cysteine and serine protease inhibitors” (Cephalon, Inc., priority 1996, dated 1998).

Key:
Assay type in all cases: biochemical
α-chymotrypsin = assay: Inhibition of α-chymotrypsin (Succ-Ala-Ala-Pro-Phe-AMC substrate); conditions: @10 uM; 0.03 mM Succ-Ala-Ala-Pro-Phe-AMC, pH 7.5
Procedure: (§1) To evaluate inhibitory activity, stock solutions (40 times concentrated) of each compound to be tested were prepared in 100% anhydrous DMSO and 5 μL of each inhibitor preparation were aliquoted into each of three wells of a 96-well plate. Calpain I, prepared by a modification of the method of W. J. Lee et al. (Biochem. Internatl. 22: 163-171 (1990)), was diluted into assay buffer (i.e., 50 mM Tris, 50 mM NaCl, 1 mM EDTA, 1 mM EGTA, and 5 mM-mercaptoethanol, pH 7.5 including 0.2 mM Succ-Leu-Tyr-MNA) and 175 μL aliquoted into the same wells containing the independent inhibitor stocks as well as to positive control wells containing 5 μL DMSO, but no compound. […] Substrate hydrolysis was monitored every 5 minutes for a total of 30 minutes using a Fluoroskan II fluorescence plate reader. […]
Additionally, because α-chymotrypsin is not a calcium sensitive enzyme and is constitutively active, following addition of inhibitor stocks to the 96 well plates, 100 μl of a 2-fold concentrated stock of enzyme in dilution buffer was first added and the reaction started by addition of 100 μl of a 2-fold concentrated stock of substrate in assay buffer. Substrate hydrolysis was monitored every 5 minutes up to 30 minutes using a Fluoroskan II ([…]). […]

Calpain I = biological target: T1, Calpain I (Homo sapiens, UniProt P07384); assay: Inhibition of calpain I activity (fluorescence, Succ-Leu-Tyr-MNA substrate hydrolysis); conditions: 0.2 mM Succ-Leu-Tyr-MNA, pH 7.5
T1 construct: made in house
T1 sequence (P07384 1-714): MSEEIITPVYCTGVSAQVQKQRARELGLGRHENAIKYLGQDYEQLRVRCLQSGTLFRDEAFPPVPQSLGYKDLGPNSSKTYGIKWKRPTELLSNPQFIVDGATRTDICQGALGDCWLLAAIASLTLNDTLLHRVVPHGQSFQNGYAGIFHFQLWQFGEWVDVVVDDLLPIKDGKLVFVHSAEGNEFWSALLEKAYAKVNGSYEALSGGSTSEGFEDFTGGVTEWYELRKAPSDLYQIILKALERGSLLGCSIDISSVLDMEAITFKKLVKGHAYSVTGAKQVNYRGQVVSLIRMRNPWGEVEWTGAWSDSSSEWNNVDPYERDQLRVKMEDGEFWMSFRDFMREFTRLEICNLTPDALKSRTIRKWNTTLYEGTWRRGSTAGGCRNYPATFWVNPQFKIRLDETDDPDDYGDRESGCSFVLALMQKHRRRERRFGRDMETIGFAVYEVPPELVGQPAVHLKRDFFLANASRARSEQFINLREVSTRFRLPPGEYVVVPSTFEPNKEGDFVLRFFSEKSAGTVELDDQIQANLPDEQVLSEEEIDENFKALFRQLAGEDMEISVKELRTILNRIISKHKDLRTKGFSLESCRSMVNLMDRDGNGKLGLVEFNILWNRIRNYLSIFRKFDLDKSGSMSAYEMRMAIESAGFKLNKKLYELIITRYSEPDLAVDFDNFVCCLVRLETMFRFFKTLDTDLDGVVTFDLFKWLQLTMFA
T1 sequence (P04632 1-268 partner): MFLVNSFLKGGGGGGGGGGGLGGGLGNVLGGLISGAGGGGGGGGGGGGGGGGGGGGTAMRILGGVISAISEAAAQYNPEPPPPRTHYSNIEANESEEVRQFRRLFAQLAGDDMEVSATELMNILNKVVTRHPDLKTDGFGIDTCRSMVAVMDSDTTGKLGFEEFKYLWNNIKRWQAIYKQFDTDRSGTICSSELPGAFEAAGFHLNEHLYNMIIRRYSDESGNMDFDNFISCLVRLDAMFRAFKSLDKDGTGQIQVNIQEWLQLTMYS
Procedure: To evaluate inhibitory activity, stock solutions (40 times concentrated) of each compound to be tested were prepared in 100% anhydrous DMSO and 5 μL of each inhibitor preparation were aliquoted into each of three wells of a 96-well plate. Calpain I, prepared by a modification of the method of W. J. Lee et al. (Biochem. Internatl. 22: 163-171 (1990)), was diluted into assay buffer (i.e., 50 mM Tris, 50 mM NaCl, 1 mM EDTA, 1 mM EGTA, and 5 mM-mercaptoethanol, pH 7.5 including 0.2 mM Succ-Leu-Tyr-MNA) and 175 μL aliquoted into the same wells containing the independent inhibitor stocks as well as to positive control wells containing 5 μL DMSO, but no compound. To start the reaction, 20 μL of 50 mM CaCl2 in assay buffer was added to all wells of the plate, excepting three, which were used as background signal baseline controls. Substrate hydrolysis was monitored every 5 minutes for a total of 30 minutes using a Fluoroskan II fluorescence plate reader. Substrate hydrolysis in the absence of inhibitor was linear for up to 15 minutes.
(§2) Inhibition of calpain I activity was calculated as the percent decrease in the rate of substrate (S) hydrolysis in the presence of inhibitor (I) relative to the rate in its absence (o). […] The results were plotted as % inhibition versus log inhibitor concentration and the IC50 was calculated from linear regression of the data.

thrombin = assay: Inhibition of thrombin (Bz-Phe-Val-Arg-AMC substrate); conditions: @10 uM; 25 μM Bz-Phe-Val-Arg-AMC, pH 7.5
cathepsin L = assay: Inhibition of cathepsin L activity (Cbz-Phe-Arg-AMC substrate); conditions: @1 uM; 0.006 mM Cbz-Phe-Arg-AMC, pH 6.0
Procedure: as §1, §2
(§3) Additionally, the order of reagents added to the plate was altered because both enzymes are constitutively active. […] Substrate hydrolysis was monitored using a Fluoroskan II (ex=390 nm; em=460 nm).

cathepsin B = assay: Inhibition of cathepsin B activity (Cbz-Phe-Arg-AMC substrate); conditions: @1 uM; 0.1 mM Cbz-Phe-Arg-AMC, pH 6.0
Procedure: as §1, §2, §3

IC50 (Calpain I): 12 nM
Compound: CC(C)CC(CC(=O)[C@H](CC(C)C)NC(=O)OCc1ccccc1)C(=O)N[C@H](C=O)CC(C)C (stereo partly drawn) [compound 7, Z-Leu-Psi[COCH2 ]Leu-Leu-H]
Chymotrypsin % I (α-chymotrypsin): 53% | Thrombin % I (thrombin): 0% | Cat L % I (cathepsin L): 100% | Cat B % I (cathepsin B): 97%
